Source: US11008295B2, “Compounds having antiinfective, antitumoral and antifungal activity” (priority 2017, dated 2021)

Experiments:
C. tropicalis = details: clinical strain; cited from earlier work
C. albicans = details: clinical strain; cited from earlier work
A. fumigatus = details: clinical strain; cited from earlier work
C. parapsilopsis = details: C. parapsilosis, clinical strain; cited from earlier work
A. terreus = details: clinical strain; cited from earlier work
C. glabrata = details: clinical strain; cited from earlier work
C. lusitaniae = details: clinical strain; cited from earlier work
C. Krusei = details: clinical strain; cited from earlier work
A. flavus = details: clinical strain; cited from earlier work
A. niger = details: clinical strain; cited from earlier work
C. guilliermondii = details: C. guillermondii, clinical strain; cited from earlier work
T. pulmonis = assay: Kirby-Bauer disk diffusion susceptibility test; type: cell-based, Tsukamurella pulmonis
Description: (§1) Bacterial strains, from clinical origin, were supplied by the National Center for Microbiology, Institute of Health Carlos III (Majadahonda, Madrid). They are detailed in Table I.
(§2) Bacterial cells suspension in sterile saline was prepared from a culture of 24-72 h, depending on bacterial species, in Mueller-Hinton Agar with 5% sheep blood. Each suspension was adjusted to a fixed size inoculum of 1-5×10^8 CFU/ml with a spectrophotometer (Ferraro, M J National Committee for Clinical Laboratory Standards. 2000).
(§3) Kirby-Bauer disk diffusion susceptibility test protocol was utilized to determine the sensitivity or resistance of pathogenic bacteria against the compounds and others antibiotics. The absence of growth around the disks is an indirect measure of the ability of this compound to inhibit an organism (Kirby, W. et al., Antibiotics Annu. 1956-1957:892). After 18 to 72 hours of incubation at […], with or without CO2, under aerobic or anaerobic conditions, depending on the bacterial species, halo of growth inhibition were obtained and evaluated.
(§4) Interpretation of susceptibility and resistance was based on the presence or absence of a zone of inhibition surrounding the disk. Kirby-Bauer disk diffusion susceptibility test is a common method which uses antibiotic-impregnated wafers to test whether bacteria are affected by antibiotics. The size of the zone of inhibition depends on how effective the antibiotic is at stopping the growth of the bacterium. A stronger antibiotic will create a larger zone, because a lower concentration of the antibiotic is enough to stop growth.

N. cyriacigeorgica = assay: Kirby-Bauer disk diffusion susceptibility test; type: cell-based
Description: as §1, §2, §3, §4

M. fortuitum = assay: Kirby-Bauer disk diffusion susceptibility test; type: cell-based; details: M. fortuitum strain 1080, isolation year 2011
Description: as §1, §2, §3, §4

M. chelonae = assay: Kirby-Bauer disk diffusion susceptibility test; type: cell-based; details: M. chelonae strain 870, isolation year 2011
Description: as §1, §2, §3, §4

A. baumannii = assay: Kirby-Bauer disk diffusion susceptibility test; type: cell-based
Description: as §1, §2, §3, §4

E. coli = assay: Kirby-Bauer disk diffusion susceptibility test; type: cell-based
Description: as §1, §2, §3, §4

N. carnea = assay: Kirby-Bauer disk diffusion susceptibility test; type: cell-based, Nocardia carnea
Description: as §1, §2, §3, §4

M. abscessus = assay: Kirby-Bauer disk diffusion susceptibility test; type: cell-based, Mycobacterium abscessus; details: M. abscessus strain 690, isolation year 2012
Description: as §1, §2, §3, §4

P. aeruginosa = assay: Kirby-Bauer disk diffusion susceptibility test; type: cell-based; details: P. aeruginosa strain 96, isolation year 2014
Description: as §1, §2, §3, §4

B. cereus = assay: Kirby-Bauer disk diffusion susceptibility test; type: cell-based, Bacillus cereus
Description: as §1, §2, §3, §4

E. faecium = assay: Kirby-Bauer disk diffusion susceptibility test; type: cell-based
Description: as §1, §2, §3, §4

E. faecalis = assay: Kirby-Bauer disk diffusion susceptibility test; type: cell-based
Description: as §1, §2, §3, §4

[1] = T. pulmonis strain 40, isolation year 2015
[2] = T. pulmonis strain 1991, isolation year 2009
[3] = N cyriacigeorgica strain 199, isolation year 2005
[4] = N. cyriacigeorgica strain 30, isolation year 2005
[5] = E. coli strain 29, isolation year 2012
[6] = E. coli strain 305, isolation year 2008
[7] = N. carnea strain 40, isolation year 2011
[8] = N. carnea strain 769, isolation year 2009
Also: key: I = intermediate activity; S = susceptibility; R = Resistance.

Compound	Characteristics of the strains: susceptibility to the antifungal (C. tropicalis)	Characteristics of the strains: susceptibility to the antifungal (C. albicans)	Characteristics of the strains: susceptibility to the antifungal (A. fumigatus)	Characteristics of the strains: susceptibility to the antifungal (C. parapsilopsis)	Characteristics of the strains: susceptibility to the antifungal (A. terreus)	Characteristics of the strains: susceptibility to the antifungal (C. glabrata)	Characteristics of the strains: susceptibility to the antifungal (C. lusitaniae)	Characteristics of the strains: susceptibility to the antifungal (C. Krusei)	Characteristics of the strains: susceptibility to the antifungal (A. flavus)	Characteristics of the strains: susceptibility to the antifungal (A. niger)	Characteristics of the strains: susceptibility to the antifungal (C. guilliermondii)	Sensitivity or resistance of the strain to the antibiotic (M. fortuitum)	Sensitivity or resistance of the strain to the antibiotic (M. chelonae)	Sensitivity or resistance of the strain to the antibiotic (M. abscessus)	other results
C[C@@H]1[C@H](O)[C@@H](C)/C=C/C=C/C=C/C=C/C=C/C=C/C=C/[C@H](O[C@@H]2O[C@H](C)[C@@H](O)[C@H](N)[C@@H]2O)C[C@@H]2O[C@](O)(C[C@@H](O)C[C@@H](O)[C@H](O)CC[C@@H](O)C[C@@H](O)CC(=O)O[C@H]1C)C[C@H](O)[C@H]2C(=O)O [Amphotericin B]	S	I	S	S	I	S	I	I	I	S	R	–	–	–	–
Clc1ccccc1C(c1ccccc1)(c1ccccc1)n1ccnc1 [Clotrimazole]	S	S	S	S	S	S	S	S	S	S	R	–	–	–	–
OC(Cn1cncn1)(Cn1cncn1)c1ccc(F)cc1F [Fluconazole]	S	S	R	S	R	S	S	S	R	R	R	–	–	–	–
C[C@@H](O)[C@H]1C(=O)N2C(C(=O)O)=C(SCCN=CN)C[C@H]12 [IMP, Imipenem]	–	–	–	–	–	–	–	–	–	–	–	R	R	R	Sensitivity or resistance of the strain to the antibiotic (T. pulmonis; [1]): S; Sensitivity or resistance of the strain to the antibiotic (T. pulmonis; [2]): S; Sensitivity or resistance of the strain to the antibiotic (N. cyriacigeorgica; [3]): R; Sensitivity or resistance of the strain to the antibiotic (N. cyriacigeorgica; [4]): S; Sensitivity or resistance of the strain to the antibiotic (A. baumannii; A. baumannii strain 300, isolation year 2001): R; Sensitivity or resistance of the strain to the antibiotic (A. baumannii; A. baumannii strain 1301, isolation year 2009): S; Sensitivity or resistance of the strain to the antibiotic (E. coli; [5]): S; Sensitivity or resistance of the strain to the antibiotic (E. coli; [6]): S; Sensitivity or resistance of the strain to the antibiotic (N. carnea; [7]): R; Sensitivity or resistance of the strain to the antibiotic (N. carnea; [8]): S
CC(=O)N1CCN(c2ccc(OCC3COC(Cn4ccnc4)(c4ccc(Cl)cc4Cl)O3)cc2)CC1 (stereo not drawn) [Ketoconazole]	S	S	S	S	S	S	S	S	S	S	R	–	–	–	–
CC(=O)NC[C@H]1CN(c2ccc(N3CCOCC3)c(F)c2)C(=O)O1 [LIN, Linezolid]	–	–	–	–	–	–	–	–	–	–	–	R	R	S	Sensitivity or resistance of the strain to the antibiotic (T. pulmonis; [1]): R; Sensitivity or resistance of the strain to the antibiotic (T. pulmonis; [2]): S; Sensitivity or resistance of the strain to the antibiotic (N. cyriacigeorgica; [3]): S; Sensitivity or resistance of the strain to the antibiotic (N. cyriacigeorgica; [4]): S; Sensitivity or resistance of the strain to the antibiotic (P. aeruginosa): S; Sensitivity or resistance of the strain to the antibiotic (N. carnea; [7]): S; Sensitivity or resistance of the strain to the antibiotic (N. carnea; [8]): S
Penicillin	–	–	–	–	–	–	–	–	–	–	–	R	R	R	Sensitivity or resistance of the strain to the antibiotic (B. cereus; B. cereus strain 25, isolation year 2014): S; Sensitivity or resistance of the strain to the antibiotic (B. cereus; B. cereus strain 182, isolation year 2013): S; Sensitivity or resistance of the strain to the antibiotic (E. faecium; E. faecium strain 26, isolation year 2012): R; Sensitivity or resistance of the strain to the antibiotic (E. faecium; E. faecium strain 209, isolation year 2015): R; Sensitivity or resistance of the strain to the antibiotic (E. faecalis; E. faecalis strain 52, isolation year 2006): R; Sensitivity or resistance of the strain to the antibiotic (E. faecalis; E. faecalis strain 1052, isolation year 2008): R; Sensitivity or resistance of the strain to the antibiotic (E. coli; [5]): R; Sensitivity or resistance of the strain to the antibiotic (E. coli; [6]): R
